We go through 7 molecules from patent US5869659A, “Heteroatom-containing cyclopentanopyridyl-oxazolidinones” (Bayer Aktiengesellschaft, priority 1996, dated 1999).

Values after ≈ are worked out from the molar mass of the structure shown. Read-outs that look alike come from different tables or passages of the source. Bounds are passed on as bounds.

Holding throughout (format): cell-based
The test system of experiment [1] is Mycobacterium smegmatis DSM 43465. The experiment in a line: MIC for rapidly growing mycobacteria by broth microdilution. The conditions noted are these: Mycolicibacterium smegmatis, DSM43465. Here is the method: (§1) For rapidly growing mycobacteria, the MIC determination was carried out following the method of broth microdilution described by Swenson [cf. J. M. Swenson, C. Thornberry, U. A. Silcox, Rapidly growing mycobacteria. Testing of suceptibility to 34 antimicrobial agents by broth microdilution. Antimicrobial Agents and Chemotherapy Vol. 22, 186-192 (1982)]. A deviation from this was the brain-heart extract medium treated with 0.1% by volume of Tween 80.
(§2) The mycobacterial strains used were obtained from the DSM (German Collection of Microorganisms, Braunschweig). They were incubated at 37° C. in a humid chamber.
(§3) The MICs were read off after 2-4 days when the preparation-free controls had become cloudy as a result of growth.

The test system of experiment [2] is Mycobacterium smegmatis DSM 43061. The description is as above. The conditions noted are these: Mycolicibacterium smegmatis, DSM43061. Here is the method:
as §1, §2, §3

The test system of experiment [3] is Staph. 25701. In words: MIC by serial dilution on Iso-Sensitest agar. The following applies: 37° C., about 20 hours. As for the experimental part:
(§4) The minimum inhibitory concentrations (MICs) were determined by serial dilution tests on Iso-Sensitest agar (Oxoid). For each test substance, a number of agar plates were prepared which contained decreasing concentrations of the active compound. The agar plates were inoculates using a multipoint inoculator (Denley). For inoculation, overnight cultures of the pathogenic organisms were used which had previously been diluted such that each inoculation point contained about 10^4 colony-forming particles. The inoculated agar plates were incubated at 37° C., and the microorganism growth was read off after about 20 hours. The MICs (μg/ml) indicates the lowest active compound concentration at which no growth could be detected using the naked eye.

Experiment [4] has as its system E. coli Neumann. The experiment in a line: MIC by serial dilution on Iso-Sensitest agar. The conditions noted are these: Escherichia coli. Here is the method:
as §4

Experiment [5] concerns Staph. 9TV. The experiment in a line: MIC by serial dilution on Iso-Sensitest agar. Here is the method: as §4
Experiment [6] has as its system Klebs. 57 USA. The experiment in a line: MIC by serial dilution on Iso-Sensitest agar. Here is the method:
as §4

Experiment [7] relates to Staph. 48N. In words: MIC by serial dilution on Iso-Sensitest agar. The conditions noted are these: 37° C., about 20 hours. As for the experimental part: as §4
In experiment [8] the test system is Psdm. Bonn. In words: MIC by serial dilution on Iso-Sensitest agar. As for the experimental part:
as §4

In experiment [9] the test system is Staph. 133. The experiment in a line: MIC by serial dilution on Iso-Sensitest agar. The following applies: 37° C., about 20 hours. Here is the method:
as §4

Where [10] appears, read: DSM 43465, brain-heart extract medium with 0.1% Tween 80, 37° C., 2-4 days, read-out: MIC.
The mark [11] stands for this setting: DSM 43061, brain-heart extract medium with 0.1% Tween 80, 37° C., 2-4 days, read-out: MIC.
Setting [12] is: Staph. 9TV, 37° C., about 20 hours, read-out: MIC.
Setting [13] is: E. coli Neumann, 37° C., about 20 hours, read-out: MIC.
Setting [14] is: Klebs. 57 USA, 37° C., about 20 hours, read-out: MIC.
[15] abbreviates: Psdm. Bonn, 37° C., about 20 hours, read-out: MIC.

With `Cn1c(=O)oc2cc(N3CC(CNC(=O)C4CC4)OC3=O)cnc21` (racemic) [Example 11], the MIC was 4 µg/mL (≈ 12 µM) in [1] (setting [10]); 8 µg/mL (≈ 24.1 µM) in experiment [2] (setting [11]); 8 µg/mL (≈ 24.1 µM) in experiment [3]; greater than 64 µg/mL in [4] (20 h); 4 µg/mL (≈ 12 µM) in experiment [5] (setting [12]); greater than 64 µg/mL in [6] (20 h). The MIC in experiment [7] is 8 µg/mL (≈ 24.1 µM); in experiment [8] (20 h), greater than 64 µg/mL; in experiment [9], 8 µg/mL (≈ 24.1 µM).
On to `CCC(=O)NCC1CN(c2cnc3c(c2)oc(=O)n3C)C(=O)O1` (racemic) [Example 12], for which the MIC was 4 µg/mL (≈ 12.5 µM) in [1]; 4 µg/mL (≈ 12.5 µM) in [2]; 8 µg/mL (≈ 25 µM) in [3]; greater than 64 µg/mL in [4] (setting [13]); 4 µg/mL (≈ 12.5 µM) in [5] (20 h); greater than 64 µg/mL in [6] (setting [14]). For the same molecule, the MIC is 8 µg/mL (≈ 25 µM) in [7], greater than 64 µg/mL in experiment [8] (setting [15]) and 8 µg/mL (≈ 25 µM) in experiment [9].
With `COC(=O)NCC1CN(c2cnc3c(c2)oc(=O)n3C)C(=O)O1` (racemic) [Example 13], the minimum inhibitory concentration (MIC) was 8 µg/mL (≈ 24.8 µM) in experiment [1] (setting [10]); 8 µg/mL (≈ 24.8 µM) in experiment [2] (setting [11]); 8 µg/mL (≈ 24.8 µM) in experiment [3]; greater than 64 µg/mL in [4] (setting [13]); 4 µg/mL (≈ 12.4 µM) in experiment [5] (setting [12]); greater than 64 µg/mL in experiment [6] (setting [14]). In addition, the MIC in experiment [7] is 8 µg/mL (≈ 24.8 µM); in experiment [8] (setting [15]), greater than 64 µg/mL; in [9], 8 µg/mL (≈ 24.8 µM).
Regarding `CC(=O)NCC1CN(c2cnc3c(c2)oc(=O)n3C)C(=O)O1` (stereo not shown) [Example 10, 5-Acetylaminomethyl-3-(3-methyloxazolo[4,5-b]-pyridin-2(3H)-on-6yl)oxazolidin-2-one], the MIC in experiment [1] (setting [10]) was 4 µg/mL (≈ 13.1 µM); in experiment [2] (setting [11]) it was 4 µg/mL (≈ 13.1 µM); in [3], 8 µg/mL (≈ 26.1 µM); in experiment [4] (20 h), greater than 64 µg/mL; in experiment [5] (setting [12]), 4 µg/mL (≈ 13.1 µM); in experiment [6] (20 h) it was greater than 64 µg/mL. Moreover, the MIC was 8 µg/mL (≈ 26.1 µM) in experiment [7] and greater than 64 µg/mL in experiment [8] (20 h).
With `CC(=O)NC[C@H]1CN(c2ccc3nc(C)sc3n2)C(=O)O1` [Example 14], the MIC in experiment [3] is 4 µg/mL (≈ 13.1 µM); in [4] (setting [13]), greater than 64 µg/mL; in experiment [5] (setting [12]), 2 µg/mL (≈ 6.53 µM); in experiment [6] (setting [14]), greater than 64 µg/mL; in [7], 8 µg/mL (≈ 26.1 µM); in experiment [8] (setting [15]), greater than 64 µg/mL. In experiment [9], the MIC came out at 4 µg/mL (≈ 13.1 µM).
In the case of `NNC(=O)c1ccncc1` [Isoniazide, reference compound], the MIC in experiment [1] (setting [10]) worked out at 1 µg/mL (≈ 7.29 µM); in experiment [2] (setting [11]), 4 µg/mL (≈ 29.2 µM).
Regarding `[H]/N=C(/N)N[C@H]1[C@H](O)[C@@H](O)[C@H](O[C@@H]2O[C@@H](C)[C@](O)(C=O)[C@H]2O[C@@H]2O[C@@H](CO)[C@H](O)[C@@H](O)[C@@H]2NC)[C@@H](N/C(N)=N\[H])[C@@H]1O` [Streptomycin, reference compound], the minimal inhibitory concentration (MIC) in experiment [1] and in [2] was 4 µg/mL (≈ 6.88 µM) throughout.

As usually defined, the MIC is the lowest concentration found to suppress growth.
